# Reference: US11952356B2, “Crystalline form of 1,4-bis[1,2-benzisoselenazol-3(2H)-one]-butane, method for preparing same and use thereof” (SHANGHAI YUANXI MEDICINE CORP., priority 2019, dated 2024)
# Like-named read-outs stand apart in the source and are kept apart here.
# Tests used:
# HBV [1] = assay: HBV DNA assay in HepAD38 culture supernatant; type: cell-based; conditions: for Supernatant HBV DVA level: HepAD38 cells
# Procedure: (§1) Cell plating: HepAD38 cells were seeded in 24-well plates at a density of 8×10^4 cells/well, each well containing 500 μL of culture medium. Treatment: 9 h after plating, the cells were observed. […] The cells were cultured for 48 h, washed with PBS twice, added with the above drugs, and cultured for another 48 h. After the 48 h, the supernatant was collected, and HBV DNA, HBsAg, and HBeAg in the supernatant were detected. HBV DNA was preferentially determined.
# HBV DNA assay in culture supernatant: According to TransGen's Viral Nucleic Acid Extraction kit, the nucleic acid was extracted and by SYBR green qPCR, the viral DNA load was determined.
# (§2) Procedures for determining HBV DNA, HBV RNA, HBsAg and HBeAg in cell culture supernatant are as follows:
# (§3) The cells were transferred to a larger culture dish, and cultured in a culture medium for 3 days. 1 mL of cell supernatant was collected for detecting HBV DNA and HBV RNA. If the detection was not timely performed, the samples were stored at −20° C.
# (§4) 1 mL of collected cell culture supernatant and the last PBS washings collected at 48 h were centrifuged at 5000 rpm for 5 min. 200 μL of the supernatant after centrifugation was added to 5 μL of DNaseI+5 μL of DNasel buffer, well mixed and subjected to instantaneous centrifugation. The supernatant was incubated for 1 h at 37° C., mixed once every 30 min, and subjected to instantaneous centrifugation. After 1 h, 5 μL of EDTA was added and the system was incubated at 65° C. for 10 min before the DNaseI reaction was terminated.
# (§5) 200 μL of HBV nucleic acid in cell supernatant was concentrated into a system of 20 μL by using a TransGene's HBV nucleic acid extraction kit.
# (§6) The supernatant HBV DNA level and the baseline level of plasmid in PBS after DNase treatment were measured by real-time PCR. After reverse transcription of HBV RNA into cDNA, real time PCR was performed to detect the level.
# HBV [2] = assay: HBeAg assay in culture supernatant; type: cell-based
# Procedure: as §1
# HBsAg and HBeAg assays in culture supernatant: The assay was time-resolved immunofluorescence (ELISA) according to HBsAg and HBeAg assay kits of PE Corporation.
# After 48 h, 1 mL of cell culture supernatant was collected for detecting HBsAg and HBeAg. The cells were washed at least 5 times with PBS. 1 mL of the last PBS washings was collected and used as the baseline for determining whether the plasmids were washed away. Note: when washing the cells, PBS was slowly added into the dish along the wall of the dish without resuspending the cells. The dish was then gently shaken to wash the cells, and the residual PBS was discarded after each washing to minimize the plasmid residues.
# H22 cells = assay: Tumor inhibitory activity assay in H22 mice; type: in vivo, mouse; conditions: 180 mg/kg once daily oral gavage; for Tumor growth inhibition: n=10
# Procedure: After 2 days of acclimation, qualified animals were randomized into 4 groups with 10 animals each. On day 0, H22 cells were grafted at 1×10^4/mouse subcutaneously at the right axilla. The treatment started at 24 h after grafting. Long and short diameters of tumor were recorded daily and the tumor size was calculated according to the formula: long diameter×short diameter^2×0.5236. The body weight was measured every 2 days. After 21 days of treatment, blood was collected from eyeballs after chloral hydrate anesthesia. The mice were sacrificed and tumors were collected quickly.
# [3] = tested on: hepatic fibrosis animal model; assay: CCl4-induced hepatic fibrosis animal model; type: in vivo, Balb/c mice; conditions: for average body weight / ALB (serum) / ALP (serum) / ALT (serum) / AST (serum) / TGF (serum) / TP (serum) / TrxR1 (serum): end of study; for ALB (serum) / ALP (serum) / ALT (serum) / AST (serum) / TGF (serum) / TP (serum) / TrxR1 (serum): model group = 1.00
# Procedure: Animals: Balb/c inbred mice, male, six weeks old, purchased from Peking University, Health Science Center, Department of Laboratory Animal Science, with license number SCXK(Jing)2016-0010. The breeding environment was clean. The accommodation temperature was 25±2° C. The mice were bred in 12-hour light/darkness cycle, and had sufficient food and water supply.
# After being prepared into a solution or suspension, the compound was administered to the mice at a dose of 5 mL/Kg.
# 20 male Balb/c mice aged 6 weeks were randomized into 4 groups. After a staged gradient induction using 25% CCl4 for 4 weeks (three times a week), the treatment started in the BSL (90 mg/kg) group and the BSM (180 mg/kg) group once a day, and the control group and model group were administered with 5‰ CMC-Na solution. After 8 weeks of induction, the mice were sacrificed and the blood was collected and centrifuged at 3000 rpm for 15 min to give the serum for detecting TGF-β1, TrxR1, AST, ALT, ALP, TP and the expression (hepatic fibrosis animal model is shown in FIG. 6). Part of liver was fixed with 4% paraformaldehyde, and subjected to immunohistochemical HE staining and Masson staining. Expressions of α-SMA and Collagen I in liver tissue were detected immunohistochemically. Part of liver was preserved in liquid nitrogen.
# [4] = Grinding test, crystalline form by XRD; type: physicochemical
# [5] = Stability test of crystalline form I (XRD after storage); type: physicochemical; conditions: 40° C./75% relative humidity and 60° C., 3 to 7 days
# HBV [6] = assay: HBV RNA assay in cell culture supernatant; type: cell-based
# Procedure: as §1, §2, §3, §4, §5, §6
# (2) cDNA quantitative system after reverse transcription of HBV RNA: […]
# [7] = BSL and BSM groups vs model group
smiles,measurement,setting,value
"C=C1[C@H](CO)[C@@H](O)C[C@@H]1n1cnc2c(=O)[nH]c(N)nc21 [ETV, entecavir, reference compound]",Supernatant HBV DVA level,HBV [1]; ETV concentration not given,80%
same,Supernatant HBeAg level,HBV [2]; ETV concentration not given,36.8%
"O=c1c2ccccc2[se]n1CCCCn1[se]c2ccccc2c1=O [Crystalline form I, 1,4-BIS[1,2-BENZISOSELENAZOL-3(2H)-one]-butane]",Mean tumor weight,H22 cells; after 21 days of treatment,138.33 mg
same,Tumor growth inhibition (tumor weight),H22 cells; after 21 days of treatment,88.70%
same,Tumor growth inhibition (tumor weight),"H22 cells; after 21 days of treatment, listed as crystalline form I",up to 88.7%
same,Tumor growth inhibition,"H22 cells; day 9, tumor size",70.42%
same,Tumor growth inhibition,"H22 cells; day 10, tumor size",78.32%
same,Tumor growth inhibition,"H22 cells; day 11, tumor size",76.31%
same,Tumor growth inhibition,"H22 cells; day 12, tumor size",78.27%
same,Tumor growth inhibition,"H22 cells; day 13, tumor size",76.03%
same,Tumor growth inhibition,"H22 cells; day 14, tumor size",72.24%
same,Tumor growth inhibition,"H22 cells; day 15, tumor size",65.74%
same,Tumor growth inhibition,"H22 cells; day 16, tumor size",76.97%
same,Tumor growth inhibition,"H22 cells; day 17, tumor size",78.21%
same,Tumor growth inhibition,"H22 cells; day 18, tumor size",82.33%
same,Tumor growth inhibition,"H22 cells; day 19, tumor size",87.15%
same,Tumor growth inhibition,"H22 cells; day 20, tumor size",88.49%
same,Tumor growth inhibition,"H22 cells; day 21, tumor size",86.67%
same,average body weight,"[3]; BSL 90 mg/kg once a day, n ≥ 4",17 g
same,average body weight,[3]; BSL 90 mg/kg,17.00 ± 0.68 g
same,ALB (serum),[3]; BSL 90 mg/kg,1.83
same,ALP (serum),[3]; BSL 90 mg/kg,0.82
same,ALT (serum),[3]; BSL 90 mg/kg,0.48
same,AST (serum),[3]; BSL 90 mg/kg,0.29
same,TGF (serum),[3]; BSL 90 mg/kg,0.76
same,TP (serum),[3]; BSL 90 mg/kg,1.35
same,TrxR1 (serum),[3]; BSL 90 mg/kg,0.82
same,Collagen1 expression in liver (staining),[3]; [7],significantly reduced
same,HE staining: symptoms of hepatocyte necrosis and inflammation,[3]; [7],significantly reduced
same,Masson staining: fibrosis symptoms,[3]; [7],gradually relieved
same,α-SMA expression in liver (staining),[3]; [7],significantly reduced
same,average body weight,"[3]; BSM 180 mg/kg once a day, n ≥ 4",18 g
same,average body weight,[3]; BSM 180 mg/kg,18.04 ± 2.23 g
same,ALB (serum),[3]; BSM 180 mg/kg,1.47
same,ALP (serum),[3]; BSM 180 mg/kg,0.73
same,ALT (serum),[3]; BSM 180 mg/kg,0.39
same,AST (serum),[3]; BSM 180 mg/kg,0.27
same,TGF (serum),[3]; BSM 180 mg/kg,0.85
same,TP (serum),[3]; BSM 180 mg/kg,1.36
same,TrxR1 (serum),[3]; BSM 180 mg/kg,0.89
same,"Liver surface symptoms (roughness, granular sensation)","[3]; treatment groups (BSL 90 mg/kg, BSM 180 mg/kg) vs model group",improved
same,Supernatant HBV DVA level,HBV [1]; 0.5 μM,62%
same,Supernatant HBV DVA level,HBV [1]; 1.0 μM,63%
same,Supernatant HBV DVA level,HBV [1]; 5.0 μM,70%
same,Inhibition effect on HBV DNA,HBV [1]; summary in words,good inhibition effect
same,Crystalline form after grinding (XRD),[4]; listed as Example 1,Crystalline form I
same,XRD pattern after storage,[5],unchanged
same,Supernatant HBeAg level,HBV [2]; 0.5 μM,22%
same,Supernatant HBeAg level,HBV [2]; 1.0 μM,17%
same,Supernatant HBeAg level,HBV [2]; 5.0 μM,43.1%^
same,Inhibition effect on supernatant HBeAg,HBV [2]; summary in words,good inhibition effect
same,Supernatant HBV RNA level,HBV [6]; 0.5 μM,48%
same,Supernatant HBV RNA level,HBV [6]; 1.0 μM,42%
same,Supernatant HBV RNA level,HBV [6]; 5.0 μM,43%
"O=c1c2ccccc2[se]n1CCCCn1[se]c2ccccc2c1=O [Crystalline form I-a, 1,4-BIS[1,2-BENZISOSELENAZOL-3(2H)-one]-butane]",Crystalline form after grinding (XRD),[4],crystalline form I
same,Crystalline form after grinding (XRD),[4]; listed as Comparative Example 1,Crystalline form I
same,Crystalline form after grinding (XRD),[4]; listed as Comparative Example 2,Crystalline form I
same,Crystalline form after grinding (XRD),[4]; listed as Comparative Example 3,Crystalline form I
